Converted amounts (≈) assume the structure as drawn.
Legend:
MCF7 = test: Cytotoxicity against human MCF7 cells after 7 days by MTT assay; assay type: functional; conditions: MCF7, 168 h, read-out: ED50 (the source's name)
PC-3 = test: Cytotoxicity against human PC3 cells after 7 days by MTT assay; assay type: functional; conditions: PC-3, 168 h, read-out: ED50 (the source's name)
A549 = test: Cytotoxicity against human A549 cells after 7 days by MTT assay; assay type: functional; conditions: A549, 168 h, read-out: ED50 (the source's name)
HT-29 = test: Cytotoxicity against human HT29 cells after 7 days by MTT assay; assay type: functional; conditions: HT-29, 168 h, read-out: ED50 (the source's name)
A498 = test: Cytotoxicity against human A498 cells after 7 days by MTT assay; assay type: functional; conditions: A498, 168 h, read-out: ED50 (the source's name)
MIA PaCa-2 = test: Cytotoxicity against human MIAPaCa2 cells after 7 days by MTT assay; assay type: functional; conditions: MIA PaCa-2, 168 h, read-out: ED50 (the source's name)
[1] = Toxicity against brine shrimp; assay type: organism-based; conditions: artemia, in vivo

## CC(=O)OC[C@@]1(OC(C)=O)C[C@@]23CC[C@H]4[C@@](C)(CCC[C@@]4(C)C(=O)O)[C@H]2CC[C@@H]1C3
MCF7
  EC50: > 20 µg/mL
PC-3
  EC50: 17.7 µg/mL (≈ 42.1 µM)

## COC(=O)[C@]1(C)CCC[C@@]2(C)[C@H]3CC[C@@H]4C[C@@]3(CC[C@@H]21)C[C@@H]4C(=O)O
MCF7
  EC50: > 20 µg/mL
PC-3
  EC50: 17.4 µg/mL (≈ 49.9 µM)

## COc1cccc2c1C(=O)c1c(O)c3c(c(O)c1C2=O)C[C@@](O)(C(=O)CO)C[C@@H]3O[C@H]1C[C@H](N)[C@H](O)[C@H](C)O1 [DOXORUBICIN]
A549
  EC50: 0.00506 µg/mL (≈ 0.00931 µM)
MCF7
  EC50: 0.152 µg/mL (≈ 0.28 µM)
HT-29
  EC50: 0.0437 µg/mL (≈ 0.0804 µM)
A498
  EC50: 0.01 µg/mL (≈ 0.0184 µM)
PC-3
  EC50: 0.0223 µg/mL (≈ 0.041 µM)
MIA PaCa-2
  EC50: 0.00379 µg/mL (≈ 0.00697 µM)

## C=C1C[C@@]23CC[C@H]4[C@@](C)(CCC[C@@]4(C)C(=O)O)[C@@H]2CC[C@@H]1C3 [KAURENOIC ACID]
[1]
  LC50: 16 µg/mL (≈ 52.9 µM)
A549
  EC50: 13.6 µg/mL (≈ 44.9 µM)
MCF7
  EC50: 1 µg/mL (≈ 3.31 µM)
HT-29
  EC50: 31.4 µg/mL (≈ 104 µM)
A498
  EC50: 48 µg/mL (≈ 159 µM)
PC-3
  EC50: 15.2 µg/mL (≈ 50.2 µM)
MIA PaCa-2
  EC50: 22.1 µg/mL (≈ 73.2 µM)
